# Test results reported in patent publication EP4813403A1, “USE OF GLP-1R/GIPR DOUBLE-TARGET AGONIST IN PREPARING ANIMAL DRUG” (Hangzhou Zhongmeihuadong Pharmaceutical Co., Ltd., priority 2023, dated 2025).
# Assays:
# [1] = molecular target: T1, dog GIPR (Canis lupus familiaris, UniProt A0A8I3MPG1); test: Agonistic activity on GIPR of different species (LANCE Ultra cAMP assay): dog; assay type: cell-based; conditions: ratio of EC50 value of other species to human EC50 value
# T1 construct: expressed in transfected cells; host or cells: CHO-K1 (transient)
# T1 sequence (A0A8I3MPG1 24-449): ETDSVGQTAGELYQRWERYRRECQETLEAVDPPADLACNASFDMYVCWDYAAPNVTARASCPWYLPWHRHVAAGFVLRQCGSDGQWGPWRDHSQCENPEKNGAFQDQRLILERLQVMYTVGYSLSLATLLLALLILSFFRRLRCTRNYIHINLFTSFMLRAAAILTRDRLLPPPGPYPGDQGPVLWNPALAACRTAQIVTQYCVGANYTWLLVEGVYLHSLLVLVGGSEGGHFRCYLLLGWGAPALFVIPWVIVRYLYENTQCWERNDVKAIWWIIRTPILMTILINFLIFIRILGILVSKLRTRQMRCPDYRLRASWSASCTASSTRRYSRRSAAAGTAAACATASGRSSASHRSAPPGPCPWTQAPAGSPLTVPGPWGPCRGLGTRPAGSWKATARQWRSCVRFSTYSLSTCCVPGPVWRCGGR
# Protocol: CHO-K1 cells were seeded in a 6-well plate at 0.6×10^6 cells/well and incubated overnight in an incubator at a temperature of 37 °C and a carbon dioxide concentration of 5%. The next day, CHO-K1 cell media were replaced. Then two tubes A and B were prepared for each plasmid. 100 µL Opti-MEM was added to tube A, then 4 µL Lipofectamine™ 3000 was added and mixed uniformly. 100 µL Opti-MEM was firstly added to tube B, then 2 µg of one of the plasmids (human GIPR-pcDNA5 (+) plasmid, dog GIPR-pcDNA5 (+) plasmid, mouse GIPR-pcDNA5 (+) plasmid, rat GIPR-pcDNA5 (+) plasmid, rabbit GIPR-pcDNA5 (+) plasmid, monkey GIPR-pcDNA5 (+) plasmid) was added and mixed uniformly, and 4 µL P3000™ was added to tube B and mixed uniformly (the ratio of plasmid to transfection reagent was 1 µg: 2 µL). […]
# 18-20 hours after transfection, human GIPR-CHO, dog GIPR-CHO, mouse GIPR-CHO, rat GIPR-CHO, rabbit GIPR-CHO, and monkey GIPR-CHO cells were resuspended in 1×Casein Stimulation Buffer (HBSS, 5 mM HEPES, 0.5 mM IBMX, 0.1% casein, pH7.4), and seeded into a 384-well cell culture plate at 9 µL/well (cell numbers being 1000, 2000, 2000, 2000, 2000, 2000 cells/well, respectively). […] The readings at 665 nm and 620 nm were determined with a 330 nm excitation light on a microplate reader. The 665 nm/620 nm reading ratio was calculated. […]
# [2] = test system: obese dogs; test: Weight loss efficacy in obese dogs; assay type: in vivo; conditions: for SFV, change rate in abdominal fat indicators / TFV, change rate in abdominal fat indicators / VFV, change rate in abdominal fat indicators / rSFV, change rate in abdominal fat indicators / rVFV, change rate in abdominal fat indicators: Mean±SEM
# Protocol: In this study, the compound of the present invention was administered subcutaneously to obese dogs multiple times to detect changes in their body weights and elucidate the weight loss effect of the compound. Obese dogs aged 8 months or older with a body condition score (BCS) ≥6 were used in this study. The dogs were housed in appropriately sized cages under controlled environmental conditions with a room temperature of 20-26°C and a relative humidity of 40%-70%, and had free access to food and water. Experimental dogs with similar body weights and BCSs (body weight: 15~24 kg, BCS: 6~9) were randomly divided into four groups (n=6 per group): G1, G2, G3, and G4. Group G1 served as the vehicle control group. […] For Group G2 obese dogs, the first dose (4 nmol/kg) was administered on Day 1 (D1) and Day 8 (D8), adjusted to the second dose (6 nmol/kg) on Day 15 (D15), and further adjusted to the third dose ([…]) on Day 22 (D22), which third dose (96 nmol/kg) was maintained for the subsequent administrations on Day 29 (D29) and Day 36 (D36). For Group G3 obese dogs, the first dose (12 nmol/kg) was administered on D1 and D8, adjusted to the second dose (19 nmol/kg) on D15, and further adjusted to the third dose ([…]) on D22, which third dose (385 nmol/kg) was also maintained for the subsequent administrations on D29 and D36. For Group G4 dogs, the positive control Dirlotapide was administered orally at a dose of 0.5 mg/kg once per day (QD) for 42 consecutive days.
# After administration, the body weights of dogs in Group G4 receiving Dirlotapide were measured at a fixed time once daily, while the body weights of dogs in the other groups (G1, G2, and G3) were measured at a fixed time once every 7 days. Food intake was measured once per day after administration. Blood tests for routine and biochemical parameters were conducted before grouping and on D43. Imaging examinations of abdominal fat volume were performed before grouping and from D43 to D45 to measure total abdominal fat volume (TFV) and visceral abdominal fat volume (VFV), and to calculate subcutaneous abdominal fat (SFV). Body condition score (BCS), body mass index (BMI), and abdominal circumference (AC) were measured once a week. The data were statistically analyzed using ANOVA. If ANOVA was statistically significant (p < 0.05) and variances were homogeneous, Tukey's test was used for intergroup comparison. If variances were heterogeneous, Dunnet's T3 test was used. Results were expressed as mean ± standard error of the mean (Mean ± SEM). The significance level was set at 0.05, and both statistical and biological significance were considered in the analysis.
# [3] = molecular target: human GLP-1R (Homo sapiens, UniProt P43220); test: Agonistic activity on GLP-1R of different species (LANCE Ultra cAMP assay): human; assay type: cell-based; parameters: expressed in transfected cells; host or cells: HEK293/CRE/GLP-1R clonal cells; conditions: ratio of EC50 value of other species to human EC50 value
# Sequence of human GLP-1R (P43220 24-463): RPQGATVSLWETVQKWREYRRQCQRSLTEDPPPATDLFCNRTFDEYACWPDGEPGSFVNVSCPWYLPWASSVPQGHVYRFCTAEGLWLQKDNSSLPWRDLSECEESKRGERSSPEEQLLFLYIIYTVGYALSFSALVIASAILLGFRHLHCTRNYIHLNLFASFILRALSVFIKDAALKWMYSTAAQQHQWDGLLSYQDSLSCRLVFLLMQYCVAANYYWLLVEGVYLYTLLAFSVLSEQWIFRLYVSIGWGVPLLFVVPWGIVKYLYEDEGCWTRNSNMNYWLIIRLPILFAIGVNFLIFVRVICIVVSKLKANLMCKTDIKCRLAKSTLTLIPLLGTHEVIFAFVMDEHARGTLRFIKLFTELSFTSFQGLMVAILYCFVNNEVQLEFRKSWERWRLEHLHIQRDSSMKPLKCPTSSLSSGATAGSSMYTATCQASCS
# [4] = D43, 4/6/96 nmol/kg s.c. QW, six administrations
# [5] = D43, 12/19/385 nmol/kg s.c. QW, six administrations
smiles,measurement,setting,value
CC[C@H](C)[C@H](NC(=O)C(C)(C)NC(=O)[C@H](Cc1ccc(O)cc1)NC(=O)[C@H](CC(=O)O)NC(=O)[C@H](CO)NC(=O)[C@@H](NC(=O)C(C)(Cc1ccccc1)NC(=O)[C@@H](NC(=O)CNC(=O)[C@H](CCC(=O)O)NC(=O)C(C)(C)NC(=O)[C@@H](N)Cc1ccc(O)cc1)[C@@H](C)O)[C@@H](C)O)C(=O)NC(C)(C)C(=O)N[C@@H](CC(C)C)C(=O)N[C@@H](CC(=O)O)C(=O)N[C@@H](CCCCN)C(=O)N[C@@H](CCC(N)=O)C(=O)N[C@@H](C)C(=O)N[C@@H](CCC(N)=O)C(=O)N[C@@H](C)C(=O)N[C@@H](CCC(=O)O)C(=O)N[C@@H](Cc1ccccc1)C(=O)N[C@H](C(=O)N[C@@H](CCCCNC(=O)COCCOCCNC(=O)COCCOCCNC(=O)COCCOCCNC(=O)CC[C@H](NC(=O)CCCCCCCCCCCCCCCCCCCCC(=O)O)C(=O)O)C(=O)N[C@@H](Cc1c[nH]c2ccccc12)C(=O)N[C@@H](CC(C)C)C(=O)N[C@@H](CC(C)C)C(=O)N[C@@H](CCCCN)C(=O)NCC(=O)NCC(=O)N1CCC[C@H]1C(=O)N[C@@H](CO)C(=O)N[C@@H](CO)C(=O)NCC(=O)N[C@@H](C)C(=O)N1CCC[C@H]1C(=O)N1CCC[C@H]1C(=O)N1CCC[C@H]1C(=O)N[C@@H](CO)C(=O)N[C@@H](CCCCN)C(N)=O)C(C)C (stereo partly drawn) [Compound P016],GIPR EC50 ratio,[1],2.88
same,"SFV, change rate in abdominal fat indicators",[2]; [4],-18.11±4.49
same,"TFV, change rate in abdominal fat indicators",[2]; [4],-16.16±5.88
same,"VFV, change rate in abdominal fat indicators",[2]; [4],-10.81±10.19
same,"rSFV, change rate in abdominal fat indicators",[2]; [4],4.80±6.52
same,"rVFV, change rate in abdominal fat indicators",[2]; [4],-1.51±3.56
same,"SFV, change rate in abdominal fat indicators",[2]; [5],-15.14±4.56
same,"TFV, change rate in abdominal fat indicators",[2]; [5],-13.00±4.47
same,"VFV, change rate in abdominal fat indicators",[2]; [5],-9.42±5.39
same,"rSFV, change rate in abdominal fat indicators",[2]; [5],4.19±4.19
same,"rVFV, change rate in abdominal fat indicators",[2]; [5],-2.41±2.12
same,effective dose for weight loss,[2]; s.c. QW escalating doses,96 nmol/kg
same,effective dose for weight loss,"[2]; s.c. QW escalating doses, equivalent of the nmol/kg dose",0.5 mg/kg
same,maximum weight loss,"[2]; s.c. QW escalating doses, six administrations",9.51%
same,GLP-1R EC50 ratio,[3],1.00
